Results reported in ChEMBL document CHEMBL1806405, “Internalization of a C17α-alkynylestradiol-porphyrin conjugate into estrogen receptor positive MCF-7 breast cancer cells” (Bioorg Med Chem Lett, 2011).
Active and inactive are the calls of the source. The calls are words filed in the database; no cut-off is given here.

Molecular target: T1, Estrogen receptor (Homo sapiens) (UniProt P03372)
T1 sequence (whole entry): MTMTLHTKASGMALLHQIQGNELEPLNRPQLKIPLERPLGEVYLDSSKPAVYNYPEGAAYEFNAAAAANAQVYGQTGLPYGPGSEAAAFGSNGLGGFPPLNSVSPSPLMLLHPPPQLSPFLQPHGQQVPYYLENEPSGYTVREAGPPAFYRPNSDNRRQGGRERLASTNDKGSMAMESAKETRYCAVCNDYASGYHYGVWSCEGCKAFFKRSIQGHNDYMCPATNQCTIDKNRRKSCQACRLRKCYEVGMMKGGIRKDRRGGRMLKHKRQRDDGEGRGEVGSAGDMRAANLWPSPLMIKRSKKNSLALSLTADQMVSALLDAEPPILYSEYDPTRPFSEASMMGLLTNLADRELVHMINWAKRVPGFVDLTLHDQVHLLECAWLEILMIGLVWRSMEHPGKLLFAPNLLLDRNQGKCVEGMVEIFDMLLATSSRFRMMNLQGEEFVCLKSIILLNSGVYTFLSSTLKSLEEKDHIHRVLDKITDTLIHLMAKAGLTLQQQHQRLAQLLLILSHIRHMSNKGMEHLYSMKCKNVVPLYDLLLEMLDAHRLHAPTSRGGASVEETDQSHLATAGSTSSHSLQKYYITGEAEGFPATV
Assay: Induction of estrogen receptor-mediated compound internalization in human MCF-7 cells at 10 umol by fluorescence microscopy
Type: cell-based
Conditions: MCF7

Compound | Activity
C=CC1=C(C)c2cc3[nH]c(c4c5nc(cc6[nH]c(cc1n2)c(C)c6CC)C(C)=C5C(=O)C4)[C@@H](CCC(=O)O)[C@@H]3C | inactive
C=CC1=C(C)c2cc3[nH]c(c4c5nc(cc6[nH]c(cc1n2)c(C)c6CC)C(C)=C5C(=O)C4)[C@@H](CCC(=O)OCCC#C[C@]1(O)CC[C@H]2[C@@H]4CCc5cc(O)ccc5[C@H]4CC[C@@]21C)[C@@H]3C | Active
